This experiment has as its target T1, horse heart myoglobin (Mb) (Equus caballus, UniProt P68082).
T1 construct: Lyophilized horse heart Mb, human Hb, equine heart cytochrome c were in their ferric form when dissolved in buffer; purchased Sigma M1882; host or cells: horse heart
Put plainly: UV-Vis spectrophotometric ligand affinity study, myoglobin. Conditions: ferric horse heart Mb, PBS pH 7.4, Soret shift 409 to 422 nm; read-out: Kd (binding affinity to ferric Mb heme). The protocol:
UV-Vis spectrophotometric ligand affinity studies for ferric and ferrous-oxy heme proteins were performed using a Cary4000 UV-Vis spectrophotometer. These studies were performed in an aerobic environment. Lyophilized horse heart Mb, human Hb, equine heart cytochrome c were in their ferric form when dissolved in buffer. DosS GAF-A was purified in its ferric form. Ferrous-oxy forms of Mb and hemoglobin (Hb) were prepared by addition of a small aliquot of sodium dithionite to the proteins (in air) and running the protein through PD-10 columns twice to remove excess dithionite/other products. […] The protein concentration was set to ˜1 μM to obtain a desirable absorbance reading at the Soret peak region. […] For those fragments with some intrinsic absorbance in the aforementioned region, a second titration was performed with the same conditions, but without protein. […]
UV-Vis spectrophotometric ligand affinity studies for ferrous heme proteins were performed using a Cary 60 UV-Vis spectrophotometer. […] The sum of the maximal and minimal differences in absorbance was plotted for each concentration point for each ligand. […]
where Y is the observed change in absorbance, A is the maximum change in absorbance, Kd is the dissociation constant of the ligand, L is the ligand concentration and P is the protein concentration. The maximal change in absorbance, A, is obtained through nonlinear regression. […]

T1 sequence (P68082 whole entry): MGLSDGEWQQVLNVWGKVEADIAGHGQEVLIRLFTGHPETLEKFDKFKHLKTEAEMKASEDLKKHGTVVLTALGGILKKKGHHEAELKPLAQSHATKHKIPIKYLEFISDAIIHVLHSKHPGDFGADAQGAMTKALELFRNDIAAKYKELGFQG

One may read the Kd as a measure of binding affinity in units of concentration. Regarding `N#CN1CCSCC1` [HT-N1, thiomorpholine N-carbonitrile], the Kd stood at 2570 ± 328 µM.

The record behind these values is patent US20240099997A1, “METALLOENZYME MODULATORS” (Regents of the University of Minnesota, priority 2022, published 2024).
